From ChEMBL document CHEMBL1671859, “bla(IMP-4) in different genetic contexts in Enterobacteriaceae isolates from Australia” (2008)
Converted amounts (≈) assume the structure as drawn.

What was measured:
Format in all cases: functional
Klebsiella pneumoniae [1] = assay: Antibacterial activity against Klebsiella pneumoniae Kp1239 transconjugant harboring IncL/M plasmid and blaIMP-4-qacG2-aacA4-catB3 array by Etest method
Klebsiella pneumoniae [2] = assay: Antibacterial activity against Klebsiella pneumoniae Kp2730 transconjugant harboring IncL/M plasmid and blaIMP-4-qacG2-aacA4-catB3 and dfrA12-orfF-aadA2 arrays by Etest method
Citrobacter amalonaticus [3] = assay: Antibacterial activity against Citrobacter amalonaticus Ca3927 transconjugant harboring IncL/M plasmid and blaIMP-4-qacG2-aacA4-catB3 array by Etest method
Enterobacter cloacae [4] = assay: Antibacterial activity against Enterobacter cloacae El1573 transconjugant harboring IncL/M plasmid and blaIMP-4-qacG2-aacA4-catB3 array by Etest method
Citrobacter amalonaticus [5] = assay: Antibacterial activity against Citrobacter amalonaticus Ca38009 transconjugant harboring IncL/M plasmid and blaIMP-4-qacG2-aacA4-catB3 array by Etest method
Klebsiella pneumoniae [6] = assay: Antibacterial activity against Klebsiella pneumoniae Kp38045 transconjugant harboring IncL/M plasmid and blaIMP-4-qacG2-aacA4-catB3 array by Etest method
Escherichia coli [7] = assay: Antibacterial activity against Escherichia coli Ec9381 transconjugant harboring IncL/M plasmid and blaIMP-4-qacG2-aacA4-catB3 array by Etest method
Morganella morganii [8] = assay: Antibacterial activity against Morganella morganii Mm1229 transconjugant harboring IncL/M plasmid and blaIMP-4-qacG2-aacA4-catB3 array by Etest method
Enterobacter cloacae [9] = assay: Antibacterial activity against Enterobacter cloacae El3799 transconjugant harboring IncL/M plasmid and blaIMP-4-qacG2-aacA4-catB3 array by Etest method
Klebsiella oxytoca [10] = assay: Antibacterial activity against Klebsiella oxytoca Ko0426 transconjugant harboring IncL/M plasmid and blaIMP-4-qacG2-aacA4-catB3 array by Etest method
Klebsiella oxytoca [11] = assay: Antibacterial activity against Klebsiella oxytoca Ko1156 transconjugant harboring IncL/M plasmid and blaIMP-4-qacG2-aacA4-catB3 array by Etest method
Escherichia coli [12] = assay: Antibacterial activity against Escherichia coli Ec158 transconjugant harboring IncA/C plasmid and blaIMP-4-qacG2-aacA4-catB3 array by Etest method
Citrobacter koseri = assay: Antibacterial activity against Citrobacter koseri Ck211 transconjugant harboring IncA/C plasmid and blaIMP-4-qacG2-aacA4-catB3 array by Etest method
Escherichia coli [13] = assay: Antibacterial activity against Escherichia coli Ec221 transconjugant harboring IncA/C plasmid and blaIMP-4-qacG2-aacA4-catB3 array by Etest method
Citrobacter youngae = assay: Antibacterial activity against Citrobacter youngae CyB38 transconjugant harboring blaIMP-4-qacG2-aacA4-catB3 array by Etest method
Klebsiella pneumoniae [14] = assay: Antibacterial activity against Klebsiella pneumoniae isolate Kp1239 harboring IncL/M plasmid and blaIMP-4-qacG2-aacA4-catB3 array by Etest method
Klebsiella pneumoniae [15] = assay: Antibacterial activity against Klebsiella pneumoniae isolate Kp2730 harboring IncL/M plasmid and blaIMP-4-qacG2-aacA4-catB3 and dfrA12-orfF-aadA2 arrays by Etest method
Enterobacter cloacae [16] = assay: Antibacterial activity against Enterobacter cloacae isolate El3280 harboring IncL/M plasmid and blaIMP-4-qacG2-aacA4-catB3 array by Etest method
Citrobacter amalonaticus [17] = assay: Antibacterial activity against Citrobacter amalonaticus isolate Ca3927 harboring IncL/M plasmid and blaIMP-4-qacG2-aacA4-catB3 array by Etest method
Enterobacter cloacae [18] = assay: Antibacterial activity against Enterobacter cloacae isolate El1573 harboring IncL/M plasmid and blaIMP-4-qacG2-aacA4-catB3 array by Etest method
Serratia marcescens [19] = assay: Antibacterial activity against Serratia marcescens isolate Sm2723 harboring IncL/M plasmid and blaIMP-4-qacG2-aacA4-catB3 array by Etest method
Klebsiella pneumoniae [20] = assay: Antibacterial activity against Klebsiella pneumoniae isolate Kp7564 harboring IncL/M plasmid and blaIMP-4-qacG2-aacA4-catB3 array by Etest method
Citrobacter amalonaticus [21] = assay: Antibacterial activity against Citrobacter amalonaticus isolate Ca38009 harboring IncL/M plasmid and blaIMP-4-qacG2-aacA4-catB3 array by Etest method
Klebsiella pneumoniae [22] = assay: Antibacterial activity against Klebsiella pneumoniae isolate Kp38009 harboring IncL/M plasmid and blaIMP-4-qacG2-aacA4-catB3 array by Etest method
Morganella morganii [23] = assay: Antibacterial activity against Morganella morganii isolate Mm1229 harboring IncL/M plasmid and blaIMP-4-qacG2-aacA4-catB3 array by Etest method
Enterobacter cloacae [24] = assay: Antibacterial activity against Enterobacter cloacae isolate El3799 harboring IncL/M plasmid and blaIMP-4-qacG2-aacA4-catB3 array by Etest method
Klebsiella oxytoca [25] = assay: Antibacterial activity against Klebsiella oxytoca isolate Ko0426 harboring IncL/M plasmid and blaIMP-4-qacG2-aacA4-catB3 array by Etest method
Klebsiella oxytoca [26] = assay: Antibacterial activity against Klebsiella oxytoca isolate Ko1156 harboring IncL/M plasmid and blaIMP-4-qacG2-aacA4-catB3 array by Etest method
Citrobacter amalonaticus [27] = assay: Antibacterial activity against Citrobacter amalonaticus isolate Ca1614 harboring IncL/M plasmid and blaIMP-4-qacG2-aacA4-catB3 array by Etest method
Citrobacter freundii = assay: Antibacterial activity against Citrobacter freundii isolate Cf1614 harboring IncL/M plasmid and blaIMP-4-qacG2-aacA4-catB3 array by Etest method
Morganella morganii [28] = assay: Antibacterial activity against Morganella morganii isolate Mm1614 harboring IncL/M plasmid and blaIMP-4-qacG2-aacA4-catB3 array by Etest method
Klebsiella pneumoniae [29] = assay: Antibacterial activity against Klebsiella pneumoniae isolate Kp149 harboring IncA/C plasmid and blaIMP-4-qacG2-aacA4-catB3 array by Etest method
Serratia marcescens [30] = assay: Antibacterial activity against Serratia marcescens isolate Sm201 harboring IncA/C plasmid and blaIMP-4-qacG2-aacA4-catB3 array by Etest method
Klebsiella pneumoniae [31] = assay: Antibacterial activity against Klebsiella pneumoniae isolate Kp211 harboring IncA/C plasmid and blaIMP-4-qacG2-aacA4-catB3 array by Etest method
Escherichia coli [32] = assay: Antibacterial activity against Escherichia coli isolate Ec211 harboring IncA/C plasmid and blaIMP-4-qacG2-aacA4-catB3 array by Etest method
Klebsiella pneumoniae [33] = assay: Antibacterial activity against Klebsiella pneumoniae isolate Kp266 harboring IncA/C plasmid and blaIMP-4-qacG2-aacA4-catB3 array by Etest method
Serratia marcescens [34] = assay: Antibacterial activity against Serratia marcescens isolate Sm211 harboring IncA/C plasmid and blaIMP-4-qacG2-aacA4-catB3 array by Etest method
Enterobacter cloacae [35] = assay: Antibacterial activity against Enterobacter cloacae isolate El216 harboring IncA/C plasmid and blaIMP-4-qacG2-aacA4-catB3 array by Etest method
Escherichia coli [36] = assay: Antibacterial activity against Escherichia coli isolate Ec221 harboring IncA/C plasmid and blaIMP-4-qacG2-aacA4-catB3 array by Etest method
Klebsiella oxytoca [37] = assay: Antibacterial activity against Klebsiella oxytoca isolate Ko238 harboring IncA/C plasmid and blaIMP-4-qacG2-aacA4-catB3 array by Etest method
Klebsiella pneumoniae [38] = assay: Antibacterial activity against Klebsiella pneumoniae isolate Kp204 harboring IncA/C plasmid and blaIMP-4-qacG2-aacA4-catB3 array by Etest method
Serratia marcescens [39] = assay: Antibacterial activity against Serratia marcescens isolate Sm265 harboring IncA/C plasmid and blaIMP-4-qacG2-aacA4-catB3 array by Etest method

## CO/N=C(\C(=O)N[C@@H]1C(=O)N2C(C(=O)O)=C(COC(C)=O)CS[C@H]12)c1csc(N)n1 [CEFOTAXIME]
Klebsiella pneumoniae [1]
  MIC: 32 µg/mL (≈ 70.3 µM)
Klebsiella pneumoniae [2]
  MIC: 32 µg/mL (≈ 70.3 µM)
Citrobacter amalonaticus [3]
  MIC: 32 µg/mL (≈ 70.3 µM)
Enterobacter cloacae [4]
  MIC: 16 µg/mL (≈ 35.1 µM)
Citrobacter amalonaticus [5]
  MIC: 16 µg/mL (≈ 35.1 µM)
Klebsiella pneumoniae [6]
  MIC: 32 µg/mL (≈ 70.3 µM)
Escherichia coli [7]
  MIC: 32 µg/mL (≈ 70.3 µM)
Morganella morganii [8]
  MIC: 32 µg/mL (≈ 70.3 µM)
Enterobacter cloacae [9]
  MIC: 32 µg/mL (≈ 70.3 µM)
Klebsiella oxytoca [10]
  MIC: 32 µg/mL (≈ 70.3 µM)
Klebsiella oxytoca [11]
  MIC: 16 µg/mL (≈ 35.1 µM)
Escherichia coli [12]
  MIC: > 32 µg/mL
Citrobacter koseri
  MIC: > 2 µg/mL
Escherichia coli [13]
  MIC: 32 µg/mL (≈ 70.3 µM)
Citrobacter youngae
  MIC: > 32 µg/mL
Klebsiella pneumoniae [14]
  MIC: > 32 µg/mL
Klebsiella pneumoniae [15]
  MIC: > 32 µg/mL
Enterobacter cloacae [16]
  MIC: > 32 µg/mL
Citrobacter amalonaticus [17]
  MIC: > 32 µg/mL
Enterobacter cloacae [18]
  MIC: > 32 µg/mL
Serratia marcescens [19]
  MIC: > 32 µg/mL
Klebsiella pneumoniae [20]
  MIC: 32 µg/mL (≈ 70.3 µM)
Citrobacter amalonaticus [21]
  MIC: > 32 µg/mL
Klebsiella pneumoniae [22]
  MIC: > 32 µg/mL
Morganella morganii [23]
  MIC: > 32 µg/mL
Enterobacter cloacae [24]
  MIC: > 32 µg/mL
Klebsiella oxytoca [25]
  MIC: 32 µg/mL (≈ 70.3 µM)
Klebsiella oxytoca [26]
  MIC: 32 µg/mL (≈ 70.3 µM)
Citrobacter amalonaticus [27]
  MIC: > 32 µg/mL
Citrobacter freundii
  MIC: > 32 µg/mL
Morganella morganii [28]
  MIC: 32 µg/mL (≈ 70.3 µM)
Klebsiella pneumoniae [29]
  MIC: > 32 µg/mL
Serratia marcescens [30]
  MIC: > 32 µg/mL
Klebsiella pneumoniae [31]
  MIC: > 32 µg/mL
Escherichia coli [32]
  MIC: > 32 µg/mL
Klebsiella pneumoniae [33]
  MIC: > 32 µg/mL
Serratia marcescens [34]
  MIC: > 32 µg/mL
Enterobacter cloacae [35]
  MIC: > 32 µg/mL
Escherichia coli [36]
  MIC: > 32 µg/mL
Klebsiella oxytoca [37]
  MIC: > 32 µg/mL
Klebsiella pneumoniae [38]
  MIC: > 32 µg/mL
Serratia marcescens [39]
  MIC: > 32 µg/mL
